Experimental data as given in patent US20250170136A1, “1,2,4-TRIAZIN-3(2H)-ONE COMPOUNDS FOR THE TREATMENT OF HYPERPROLIFERATIVE DISEASES” (BAYER AKTIENGESELLSCHAFT, priority 2019, published 2025).

Columns and labels:
[1] = system: 42-MG-BA cells; test: Cell proliferation measurement (CellTiter-Glo, 72 h); type: cell-based; settings: Homo sapiens, anti-proliferation, Brain (Glioblastoma)
Protocol: (§1) The antiproliferative activity of the compounds of the general formula (I) was examined in vitro in human cancer cells. […] After 24 h, cells on one plate (0 h plate) were treated with 30 μl/cavity of CTG solution (Promega Cell Titer Glo (catalogue #G755B and G756B)) and incubated at room temperature for 10 min, and luminescence was measured by means of a VICTOR V (Perkin Elmer), in order to determine cell viability on commencement of treatment. The cells on the test plate were treated with the compounds of the general formula (I) as and incubated at 37° C. for 72 h. The compounds were added to the cells by means of an HP D300 digital dispenser in a 10-step 2,5-fold dilution series generally starting at a maximum final drug concentration of 100 nM, or 30 μM in the case of COV318. As control, the cells were treated with vehicle (DMSO at 0.3% final concentration). After 72 h, the cells were treated with 30 μl/cavity of CTG solution (Promega Cell Titer Glo (catalogue #G755B and G756B)) and incubated at room temperature for 10 min, and luminescence was measured by means of a VICTOR V (Perkin Elmer), in order to determine cell viability at the end of treatment. The percentage effect on cell growth and the IC50 derived therefrom were determined for each test substance using the values from the 0 h plate (=maximum inhibition) and the DMSO control (=minimum inhibition). The IC50 values were calculated using a 4-parameter fit.

[2] = system: 92.1 cells; test: as above; type: cell-based; settings: Homo sapiens, anti-proliferation, 92.1, Uveal melanoma
Protocol: as §1

[3] = system: COV318 cells; test: as above; type: cell-based; settings: Homo sapiens, anti-proliferation, COV318, Ovarian cancer, maximum concentration 30 μM
Protocol: as §1

[4] = system: DBTRG05MG cells; test: as above; type: cell-based; settings: Homo sapiens, DBTRG-05MG, anti-proliferation, Brain (Glioblastoma)
Protocol: as §1

[5] = system: DKMG cells; test: as above; type: cell-based; settings: Homo sapiens, anti-proliferation, Brain (Glioblastoma)
Protocol: as §1

[6] = system: GAMG cells; test: as above; type: cell-based; settings: Homo sapiens, anti-proliferation, Brain (Glioblastoma)
Protocol: as §1

[7] = system: GB1 cells; test: as above; type: cell-based; settings: Homo sapiens, GB-1, anti-proliferation, GB1, Brain (Glioblastoma)
Protocol: as §1

[8] = system: H4 cells; test: as above; type: cell-based; settings: Homo sapiens, anti-proliferation, H4, Brain (Astrocytoma)
Protocol: as §1

[9] = system: HeLa cells; test: as above; type: cell-based; settings: Homo sapiens, anti-proliferation
Protocol: as §1

[10] = system: IGR37 cells; test: as above; type: cell-based; settings: Homo sapiens, IGR-37, anti-proliferation, IGR37, Melanoma
Protocol: as §1

[11] = system: LN229 cells; test: as above; type: cell-based; settings: Homo sapiens, LN-229, anti-proliferation, LN229, Brain (Glioblastoma)
Protocol: as §1

[12] = system: M059J cells; test: as above; type: cell-based; settings: Homo sapiens, anti-proliferation, Brain (Glioblastoma)
Protocol: as §1

[13] = system: Mel202 cells; test: as above; type: cell-based; settings: Homo sapiens, anti-proliferation, Mel202, Uveal melanoma
Protocol: as §1

[14] = system: PFSK cells; test: as above; type: cell-based; settings: Homo sapiens, anti-proliferation, Brain (Primitive neuroectodermal tumor)
Protocol: as §1

[15] = system: SK-MEL-3 cells; test: as above; type: cell-based; settings: Homo sapiens, SK-MEL3; anti-proliferation, SK-MEL-3, 72 h
Protocol: as §1

[16] = system: SW1783 cells; test: as above; type: cell-based; settings: Homo sapiens, anti-proliferation, SW1783, Brain (Anaplastic astrocytoma)
Protocol: as §1

[17] = system: T98G cells; test: as above; type: cell-based; settings: Homo sapiens, anti-proliferation, Brain (Glioblastoma)
Protocol: as §1

[18] = system: U-251MG cells; test: as above; type: cell-based; settings: Homo sapiens, anti-proliferation, Brain (Glioblastoma: Astrocytoma)
Protocol: as §1

[19] = system: U118-MG cells; test: as above; type: cell-based; settings: Homo sapiens, U-118-MG, anti-proliferation, Brain (Glioblastoma: Astrocytoma)
Protocol: as §1

[20] = system: YKG1 cells; test: as above; type: cell-based; settings: Homo sapiens, YKG-1, anti-proliferation, YKG1, Brain (Glioblastoma)
Protocol: as §1

[21] = In vivo pharmacokinetics in mice (i.v.); parameters: species or system female CD-1 mice; settings: Mouse/female/CD1, 0.5 mg/kg i.v., PEG400 60% + Water 35% + EtOH 5%
Protocol: For in vivo pharmacokinetic experiments test compounds were administered to female CD-1 mice, male Wistar rats, Beagle dogs or Cynomolgus monkeys intravenously at doses of 0.3 to 1 mg/kg formulated as solutions using solubilizers such as PEG400 in well-tolerated amounts.
Studies may also have been performed as cassette administrations of up to 3 compounds given together simultaneously in low doses.
For pharmacokinetics after intravenous administration test compounds were given in the female mice and male rat as i.v. bolus and in dogs and monkeys as short term infusion (15 min). Blood samples were taken e.g. at 2 min, 8 min, 15 min, 30 min, 45 min, 1 h, 2 h, 4 h, 6 h, 8 h and 24 h after dosing from the vena jugularis (mouse, rat) or vena saphena (dog, monkey). […] PK parameters were calculated by non-compartmental analysis using a PK calculation software (e.g. Phoenix WinNonlin®, Certara USA, Inc.).
PK parameters derived from concentration-time profiles after i.v.: CLplasma (in L/kg/h): Total plasma clearance of test compound calculated by dose (in μg/kg) divided by area under the concentration-time curve from t=0 h to infinity (extrapolated) (AUCinf in μg*h/L); CLblood: Total blood clearance of test compound: CLplasma*Cp/Cb (in L/kg/h) with Cp/Cb being the ratio of test compound concentrations in plasma and blood. […]

## C[C@@H]1NC(=O)NN=C1c1ccc(-n2ccc(C(F)(F)F)n2)c(C(F)(F)F)c1 [Example 1, (5S)-5-methyl-6-{3-(trifluoromethyl)-4-[3-(trifluoromethyl)-1H-pyrazol-1-yl]phenyl}-4,5-dihydro-1,2,4-triazin-3(2H)-one]
[1]
  IC50: > 0.1 µM
[2]
  IC50: 0.0194 µM
[3]
  IC50: 8.93 µM
[4]
  IC50: 0.0305 µM
[5]
  IC50: 0.0166 µM
[6]
  IC50: > 0.1 µM
[7]
  IC50: 0.00896 µM
[8]
  IC50: 0.0477 µM
[9]
  IC50: 0.0015 µM
[10]
  IC50: 0.00401 µM
[11]
  IC50: > 0.1 µM
[12]
  IC50: 0.0405 µM
[13]
  IC50: 0.0742 µM
[14]
  IC50: 0.00295 µM
[15]
  IC50: 0.004 µM
[16]
  IC50: > 0.1 µM
[17]
  IC50: > 0.1 µM
[18]
  IC50: > 0.1 µM
[19]
  IC50: > 0.1 µM
[20]
  IC50: > 0.1 µM
[21]
  CLblood: 0.18 L/h/kg
